In patent US20040029823A1, “Antisense oligonucleotide compositions and methods for the modulation of JNK proteins” (priority 1997, published 2004):
Strand notation (5' to 3'): a small letter for the sugar, then the base; units joined by * are phosphorothioate-linked, units joined directly phosphodiester-linked; [ ] holds rarer units or linkages, { } end groups; capitals alone tell only the bases. e = 2'-O-(2-methoxyethyl) (MOE); [5mC] = 5-methylcytosine; d = 2'-deoxy (DNA)

How the values were obtained:
rat JNK2 mRNA = test: Northern assay of rat JNK2 (p54a) mRNA in A10 aortic smooth muscle cells; type: cell-based; parameters: inhibition of rat JNK2 mRNA levels / % INHIBITION: concentration or dose not given beside the values; conditions: for % INHIBITION / % EXPRESSION: rat JNK2 (p54a) mRNA in A10 cells; for % EXPRESSION: relative to LIPOFECTIN-only control; for inhibition of rat JNK2 mRNA levels: A10 cells (Table 22); for % EXPRESSION JNK2: A10 cells
Experimental: (§1) In order to study the role of JNK proteins in animal models, oligonucleotides targeted to the genes encoding JNK1, JNK2 and JNK3 of Rattus norvegicus were prepared. These oligonucleotides are 2′-methoxyethoxy, phosphodiester/2′-hydroxyl, phosphorothioate/2′-methoxyethoxy, phosphodiester “gapmers” in which every cytosine residue is 5-methylcytosine (m5c). These antisense compounds were synthesized according to the methods of the disclosure. Certain of these oligonucleotides are additionally specifically hybridizable to JNK genes from other species as indicated herein. The oligonucleotides described in this Example were tested for their ability to modulate rat JNK mRNA levels essentially according to the methods described in the preceding Examples, with the exceptions that the cell line used was rat A10 aortic smooth muscle cells (ATCC No. ATCC CRL-1476) and the probes used were specific for rat JNK1, JNK2 or JNK3 (see infra). A10 cells were grown and treated with oligonucleotides essentially as described by (Cioffi et al. Mol. Pharmacol., 1997, 51, 383).
(§2) These antisense compounds were tested for their ability to modulate levels of p54? (JNK1) and p54a (JNK2) mRNA in A10 cells via Northern assays. Due to the high degree of sequence identity between the human and rat genes, radiolabeled human JNK1 (Example 3) and JNK2 (Example 4) cDNAs functioned as specific probes for the rat homologs.
These antisense compounds were tested for their ability to modulate levels of p54a (JNK2) mRNA in A10 cells using the radiolabeled human JNK2 cDNA as a probe as described supra. Oligonucleotides showing levels of inhibition from ≧ about 60% to about 100% of rat JNK2 mRNA levels include ISIS Nos. 18254, 18255, 18257, 18258, 18259, 18260 and 18265 (SEQ ID NOS: 125, 126, 128, 129, 130, 131 and 136, respectively). These oligonucleotides are preferred embodiments of the invention for modulating rat JNK2 expression. […] These oligonucleotides are thus more preferred embodiments of the invention for modulating rat JNK2 expression. ISIS 18259 (SEQ ID NO: 130) was chosen for use in further studies (infra).

JNK2 mRNA = test: Northern assay of JNK2 mRNA expression in A549 cells; type: cell-based, human; conditions: for Normalized % Control: JNK2 mRNA, chemically modified oligonucleotides; for % INHIBITION: JNK2 mRNA time course
Experimental: In order to evaluate the activity of potential JNK-modulating oligonucleotides, human lung carcinoma cell line A549 (American Type Culture Collection, Rockville, Md. No. ATCC CCL-185) cells or other cell lines as indicated in the Examples, were grown and treated with oligonucleotides or control solutions as detailed below. After harvesting, cellular extracts were prepared and examined for specific JNK mRNA levels or JNK protein levels (i.e., Northern or Western assays, respectively). In all cases, “% expression” refers to the amount of JNK-specific signal in an oligonucleotide-treated cell relative to an untreated cell (or a cell treated with a control solution that lacks oligonucleotide), and “% inhibition” is calculated as
100%−% Expression =% Inhibition.
Northern Assays: The mRNA expression of each JNK protein was determined by using a nucleic acid probe specifically hybridizable thereto. Nucleic acid probes specific for JNK1, JNK2 and JNK3 are described in Examples 3, 4 and 5, respectively. The probes were radiolabelled by means well known in the art (see, e.g., Short Protocols in Molecular Biology, 2nd Ed., Ausubel et al., Eds., John Wiley & Sons, New York, 1992, pages 3-11 to 2-3-44 and 4-17 to 4-18; Ruth, Chapter 6 In: Methods in Molecular Biology, Vol. 26: Protocols for Oligonucleotide Conjugates, Agrawal, ed., Humana Press Inc., Totowa, N.J., 1994, pages 167-185; and Chapter 10 In: Molecular Cloning: A Laboratory Manual, 2nd Ed., Sambrook et al., Eds., pages 10.1-10.70). The blots were stripped and reprobed with a ^32P-labeled glyceraldehyde 3-phosphate dehydrogenase (G3PDH) probe (Clontech Laboratories, Inc., Palo Alto, Calif.) in order to confirm equal loading of RNA and to allow the levels of JNK transcripts to be normalized with regard to the G3PDH signals.
A549 cells were grown in T-75 flasks until 80-90% confluent. At this time, the cells were washed twice with 10 mL of media (DMEM), followed by the addition of 5 mL of DMEM containing 20 μg/mL of LIPOFECTIN™ (i.e., 1:1 (w/w) DOTMA/DOPE, Life Technologies, Gaithersburg, Md.; DOTMA=N-[1-(2,3-dioleyoxy)propyl]-N,N,N-trimethylammonium chloride; DOPE=dioleoyl phosphatidylethanolamine). The oligonucleotides were added from a 10 μM stock solution to a final concentration of 400 nM, and the two solutions were mixed by swirling the flasks. As a control, cells were treated with LIPOFECTIN™ without oligonucleotide under the same conditions and for the same times as the oligonucleotide-treated samples. After 4 hours at 37° C., the medium was replaced with fresh DMEM containing 10% serum. The cells were allowed to recover for 18 hours. Total cellular RNA was then extracted in guanidinium, subject to gel electrophoresis and transferred to a filter according to techniques known in the art (see, e.g., Chapter 7 In: Molecular Cloning: A Laboratory Manual, 2nd Ed., Sambrook et al., Eds., pages 7.1-7.87, and Short Protocols in Molecular Biology, 2nd Ed., Ausubel et al., Eds., John Wiley & Sons, New York, 1992, pages 2-24 to 2-30 and 4-14 to 4-29). Filters were typically hybridized overnight to a probe specific for the particular JNK gene of interest in hybridization buffer (25 mM KPO4, pH 7.4; 5×SSC; 5× Denhardt's solution, 100 μg/ml Salmon sperm DNA and 50% formamide) (Alahari et al., Nucl. Acids Res., 1993, 21, 4079). This was followed by two washes with 1×SSC, 0.1% SDS and two washes with 0.25×SSC, 0.1% SDS. Hybridizing bands were visualized by exposure to X-OMAT AR film and quantitated using a PHOSPHORIMAGER™ essentially according to the manufacturer's instructions (Molecular Dynamics, Sunnyvale, Calif.)
B. JNK2-specific probes: In initial screenings of a set of oligonucleotides derived from the JNK2 sequence (Table 9) for biological activity, a cDNA clone of JNK2 (Kallunki et al., Genes & Development, 1994, 8, 2996) was radiolabeled and used as a JNK2-specific probe in Northern blots. […]

rat JNK1 mRNA = test: Northern assay of rat JNK1 (p54?) mRNA in A10 aortic smooth muscle cells; type: cell-based; conditions: A10 cells
Experimental: as §1, §2

Row | Substance | % INHIBITION (rat JNK2 mRNA) | % EXPRESSION (rat JNK2 mRNA) | other results
1 | 10260 (antisense eAeTe[5mC]eTeG*d[5mC]*dG*dA*dG*dG*dT*dT*dT*d[5mC]*dA*eTe[5mC]eGeGe[5mC]) [compound 10260] | 59% | 41% | –
2 | 15355 (antisense eG*eT*e[5mC]*e[5mC]*eG*eG*eG*e[5mC]*e[5mC]*eA*eG*dG*dC*dC*dA*dA*dA*dG*dT*dC) [compound 15355] | – | – | Normalized % Control (JNK2 mRNA; dose 100 nM): 61.3%; Normalized % Control (JNK2 mRNA; dose 400 nM): 29.1%
3 | 15356 (antisense dG*dT*dC*dC*dG*dG*dG*dC*dC*eA*eG*eG*e[5mC]*e[5mC]*eA*eA*eA*eG*eT*e[5mC]) [compound 15356] | – | – | Normalized % Control (JNK2 mRNA; dose 100 nM): 38.6%; Normalized % Control (JNK2 mRNA; dose 400 nM): 11.0%
4 | 15357 (antisense GTCCGGGCCAGGCCAAAGTC; wingmer: 5' deoxy phosphorothioate wing, 3' MOE phosphodiester wing, wing lengths not given here) [compound 15357] | – | – | Normalized % Control (JNK2 mRNA; dose 100 nM): 42.8%; Normalized % Control (JNK2 mRNA; dose 400 nM): 13.7%
5 | 15358 (antisense eGeTe[5mC]e[5mC]eGeGeGe[5mC]e[5mC]eAeG*dG*dC*dC*dA*dA*dA*dG*dT*e[5mC]) [compound 15358] | – | – | Normalized % Control (JNK2 mRNA; dose 100 nM): 47.4%; Normalized % Control (JNK2 mRNA; dose 400 nM): 29.4%
6 | 18254 (antisense eTe[5mC]eAeTeG*dA*dT*dG*dT*dA*dG*dT*dG*dT*d[5mC]*eAeTeAe[5mC]eA) [compound 18254] | 80% | 20% | –
7 | 18255 (antisense eTeGeTeGeG*dT*dG*dT*dG*dA*dA*d[5mC]*dA*d[5mC]*dA*eTeTeTeAeA) [compound 18255] | 79% | 21% | –
8 | 18256 (antisense e[5mC]e[5mC]eAeTeA*dT*dG*dA*dA*dT*dA*dA*d[5mC]*d[5mC]*dT*eGeAe[5mC]eAeT) [compound 18256] | 20% | 80% | –
9 | 18257 (antisense eGeAeTeAeT*d[5mC]*dA*dA*d[5mC]*dA*dT*dT*d[5mC]*dT*d[5mC]*e[5mC]eTeTeGeT) [compound 18257] | 68% | 32% | inhibition of rat JNK2 mRNA levels (rat JNK2 mRNA): ≥ 60%
10 | 18258 (antisense eGe[5mC]eTeTe[5mC]*dG*dT*d[5mC]*d[5mC]*dA*d[5mC]*dA*dG*dA*dG*eAeTe[5mC]e[5mC]eG) [compound 18258] | 81% | 19% | –
11 | 18259 (antisense eGe[5mC]eTe[5mC]eA*dG*dT*dG*dG*dA*d[5mC]*dA*dT*dG*dG*eAeTeGeAeG) [compound 18259] | 85% | 15% | % EXPRESSION JNK1 (rat JNK1 mRNA; dose response, 10 nM): 95%; % EXPRESSION JNK1 (rat JNK1 mRNA; dose response, 50 nM): 101%; % EXPRESSION JNK1 (rat JNK1 mRNA; dose response, 100 nM): 94%; % EXPRESSION JNK1 (rat JNK1 mRNA; dose response, 200 nM): 89%; % EXPRESSION JNK2 (rat JNK2 mRNA; dose response, 10 nM): 81%; % EXPRESSION JNK2 (rat JNK2 mRNA; dose response, 50 nM): 35%; % EXPRESSION JNK2 (rat JNK2 mRNA; dose response, 100 nM): 15%; % EXPRESSION JNK2 (rat JNK2 mRNA; dose response, 200 nM): 5%
12 | 18260 (antisense eAeTe[5mC]eTeG*d[5mC]*dG*dA*dG*dG*dT*dT*dT*d[5mC]*dA*eTe[5mC]eGeGe[5mC]) [compound 18260] | – | – | inhibition of rat JNK2 mRNA levels (rat JNK2 mRNA): ≥ 60%
13 | 18261 (antisense e[5mC]e[5mC]eAe[5mC]e[5mC]*dA*dG*d[5mC]*dT*d[5mC]*d[5mC]*d[5mC]*dA*dT*dG*eTeGe[5mC]eTe[5mC]) [compound 18261] | 53% | 47% | –
14 | 18262 (antisense e[5mC]eAeGeTeT*dA*d[5mC]*dA*d[5mC]*dA*dT*dG*dA*dT*d[5mC]*eTeGeTe[5mC]eA) [compound 18262] | 50% | 50% | –
15 | 18263 (antisense eAeAeGeAeG*dG*dA*dT*dT*dA*dA*dG*dA*dG*dA*eTeTeAeTeT) [compound 18263] | 37% | 63% | –
16 | 18264 (DNA eAeGe[5mC]eAeG*dA*dG*dT*dG*dA*dA*dA*dT*dA*d[5mC]*eAeAe[5mC]eTeT; antisense) [compound 18264] | 52% | 48% | –
17 | 18265 (DNA eTeGeTe[5mC]eA*dG*d[5mC]*dT*d[5mC]*dT*dA*d[5mC]*dA*dT*dT*eAeGeGe[5mC]eA; antisense) [compound 18265] | 62% | 38% | inhibition of rat JNK2 mRNA levels (rat JNK2 mRNA): ≥ 60%
18 | 18266 (DNA eAeGeTeAeA*dG*d[5mC]*d[5mC]*d[5mC]*dG*dG*dT*d[5mC]*dT*d[5mC]*e[5mC]eTeAeAeG; antisense) [compound 18266] | 34% | 66% | –
19 | 18267 (DNA eAeAeAeTeG*dG*dA*dA*dA*dA*dG*dG*dA*d[5mC]*dA*eGe[5mC]eAeGe[5mC]; antisense) [compound 18267] | 16% | 84% | –
20 | 21857 (DNA e[5mC]eAeAe[5mC]eG*dT*d[5mC]*d[5mC]*d[5mC]*dG*d[5mC]*dG*d[5mC]*dT*d[5mC]*eGeGe[5mC]e[5mC]eG; antisense) [compound 21857] | – | – | % EXPRESSION JNK1 (rat JNK1 mRNA; rat JNK1 mRNA, oligonucleotides targeted to rat JNK1): 24%; % EXPRESSION JNK2 (rat JNK2 mRNA; rat JNK2 mRNA, oligonucleotides targeted to rat JNK1): 91%
21 | GTC-CGG-GCC-AGG-CCA-AAG-TC (GTCCGGGCCAGGCCAAAGTC; chemistry not given here) [ISIS 12560] | – | – | % INHIBITION (JNK2 mRNA; t=12 h): greater than or equal to 80%; % INHIBITION (JNK2 mRNA; t=48 h): greater than or equal to 60%
